# Laboratory results reported in patent US12611406B2, “Oxopiperazine derivatives for the treatment of cancer” (Inthera Bioscience AG, priority 2020, dated 2026).
# Like-named read-outs stand apart in the source and are kept apart here.
# Legend:
# [1] = 5-day daily oral repeated-dose pilot study in Beagle dogs (mesylate salt); format: in vivo; details: for Tmax / Cmax / half-life: both sexes, Beagle, dog, plasma, po
# Procedure: The objective of the study was to determine the TK profile of Compound 1, following its daily administration through oral gavage for 5 consecutive days to Beagle dogs. Compound 1 (mesylate salt) was administered daily to groups of dogs (n=2/sex/group) by oral gavage (PO) for 5 consecutive days at doses of 1.5 and 2 mg/kg/day. The vehicle was 0.5% (w/v) methylcellulose in sterile water. For TK evaluation blood samples were collected from each dog on Days 1 and 5 at the following timepoints relative to dosing: pre-dose, 15 min, 30 min, as well as 1, 2, 4, 6, 8, 12, and 24 hours post-dose.
# [2] = 28-day once weekly oral repeated-dose DRF study in CD-1 mice (mesylate salt), plasma; format: in vivo; details: male; for Tmax / Cmax / AUC(0-t) / half-life: CD-1, mouse, plasma, po; for AUC(0-t): read-out: AUC0-8h
# Procedure: This study explored the PK of Compound 1 after once weekly oral administration of 300 and 600 mg/kg/week for 4 consecutive weeks to male CD-1 mice.
# Compound 1 (mesylate salt) was administered in 4 weekly doses by oral gavage to groups of male CD-1 mice (n=3/group) at dose levels of 300 and 600 mg/kg bodyweight per week. A suspension of 0.5% methylcellulose (w/v) in sterile water served as vehicle. Blood samples for PK analysis were collected after the second (Day 8) and fourth (Day 22) dosing at pre-dose, 0.25, 0.5, 1, 2, 4, 8, and 24 hours (the latter time point only after the 2nd dose) after administration.
# Total plasma concentrations of Compound 1 were analyzed using a qualified LC-MS/MS method.
# NCI-H209 = assay: S-phase arrest (cell cycle FACS); format: cell-based; design: key: “+” (present); “−” (absent); details: Rb x, p53 x
# Procedure: (§1) Cell cycle phase distribution in control (C) cells or cells treated at 20 or 200 nM Compound 1 for 24 hours (24 h) determined by fluorescence activated cell sorting (FACS) analysis, and detection of histone H2A variant H2A.X phosphorylation (γH2A.X, also referred to herein as gamma H2A.X or γH2A.X) by Western blot as DNA damage biomarker.
# (§2) In table 1, “wt”=wild-type; “x”=cells harboring Rb and p53 deficiencies; “+” (present) or “−” (absent) indicate the arrest (i.e. accumulation) of cells in S-phase triggered by Compound 1, which coincided with accumulation of the DNA damage marker phosphorylated gamma H2AX (γH2AX; see FIG. 3A). These events are followed by activation of caspases 3 and 7 as indicators of cell apoptosis as indicated by “+” (present) or “−” (absent). In cancer cells with intact Rb and/or p53 functions (wt=wild-type), Compound 1 induced growth arrest but not a substantial increase of cells in S-phase (=S-phase arrest). Upon release of treatment, such cells are able to proliferate again.
# NCI-H69 = assay: S-phase arrest (cell cycle FACS); format: cell-based; design: key: “+” (present); “−” (absent); details: Rb x, p53 x
# Procedure: as §1, §2
# NCI-H82 = assay: S-phase arrest (cell cycle FACS); format: cell-based; design: key: “+” (present); “−” (absent); details: Rb x, p53 x
# Procedure: as §1, §2
# 22Rv1 = assay: S-phase arrest (cell cycle FACS); format: cell-based; design: key: “+” (present); “−” (absent); details: Rb wt, p53 wt
# Procedure: as §1, §2
# BT-549 = assay: S-phase arrest (cell cycle FACS); format: cell-based; design: key: “+” (present); “−” (absent); details: Rb x, p53 x
# Procedure: as §1, §2
# Y-79 = assay: S-phase arrest (cell cycle FACS); format: cell-based; design: key: “+” (present); “−” (absent); details: Rb x, p53 wt
# Procedure: as §1, §2
# LNCaP = assay: S-phase arrest (cell cycle FACS); format: cell-based; design: key: “+” (present); “−” (absent); details: Rb wt, p53 wt
# Procedure: as §1, §2
# NCI-H146 = assay: S-phase arrest (cell cycle FACS); format: cell-based; design: key: “+” (present); “−” (absent); details: Rb x, p53 x
# Procedure: as §1, §2
# Hut-78 = assay: S-phase arrest (cell cycle FACS); format: cell-based; design: key: “+” (present); “−” (absent); details: Rb x, p53 x
# Procedure: as §1, §2
# DU-145 = assay: S-phase arrest (cell cycle FACS); format: cell-based; design: key: “+” (present); “−” (absent); details: Rb x, p53 x
# Procedure: as §1, §2
# SCLC-21H = assay: S-phase arrest (cell cycle FACS); format: cell-based; design: key: “+” (present); “−” (absent); details: Rb x, p53 x
# Procedure: as §1, §2
# NCI-H660 [3] = assay: S-phase arrest (cell cycle FACS); format: cell-based; design: key: “+” (present); “−” (absent); details: Rb x, p53 x
# Procedure: as §1, §2
# NCI-H660 [4] = assay: NCI-H660 prostate cancer CDX mouse model; format: in vivo; details: for Tumor growth inhibition: 6 weeks
# From the text: Left panel: Tumor growth curves. Right panel: Body weight development. The dosing regimen is indicated as dots below the curves. BID: twice daily treatment. QW: once weekly treatment. p.o.: per oral.
# NCI-H660 cells represent a rather far advanced PC type in which not only the tumor suppressor functions of Rb1 and p53 have been lost (see Table 1). Furthermore, the cells already have developed a small cell phenotype characteristic of advanced treatment-resistant PC. In contrast, 22Rv1 tumor cells that are wild-type for Rb1 and p53 pathways were less sensitive to Compound 1 treatment when a once weekly dosing scheme was used.
# Values larger than 100% indicate tumor regression.
# [5] = 300 mg/kg, 300 mg/kg/week, 2nd dose (Week 2)
# [6] = 300 mg/kg, 300 mg/kg/week, 4th dose (Week 4)
# [7] = 600 mg/kg, 600 mg/kg/week, 2nd dose (Week 2)
# [8] = 600 mg/kg, 600 mg/kg/week, 4th dose (Week 4)
smiles,measurement,setting,value
"CC(C)C[C@@H]1NCCN([C@@H](CC(C)C)C(=O)N2CCC3(C[C@@H]2C)OCC(CN2CCCC2)CO3)C1=O (stereo partly drawn) [Compound 1, (S)-3-isobutyl-1-((S)-4-methyl-1-((S)-8-methyl-3-(pyrrolidin-1-ylmethyl)-1,5-dioxa-9-azaspiro[5.5]undecan-9-yl)-1-oxopentan-2-yl)piperazin-2-one]",Total AUC (AUC(0-inf)),"[1]; 1.5 mg/kg, Day 1",116 ng·h/mL
same,Total AUC (AUC(0-inf)),"[1]; 1.5 mg/kg, Day 5",213 ng·h/mL
same,Total AUC,"[1]; 2 mg/kg, Day 1",173 ng·h/mL
same,Total AUC,"[1]; 2 mg/kg, Day 5",270 ng·h/mL
same,Tmax,[1]; 1.5 mg/kg,~0.5 h
same,Cmax,"[1]; 1.5 mg/kg, Day 1",25.4 ng/mL
same,half-life,"[1]; 1.5 mg/kg, Day 1, read-out: elimination half-life (converted)",4.5 h
same,Cmax,"[1]; 1.5 mg/kg, Day 5",44.6 ng/mL
same,half-life,"[1]; 1.5 mg/kg, Day 5, read-out: elimination half-life (converted)",6.2 h
same,Cmax,"[1]; 2 mg/kg, Day 1",33.6 ng/mL
same,Tmax,"[1]; 2 mg/kg, Day 1",~0.4 h
same,half-life,"[1]; 2 mg/kg, Day 1, read-out: T1/2 (converted)",4.7 h
same,Cmax,"[1]; 2 mg/kg, Day 5",32.3 ng/mL
same,Tmax,"[1]; 2 mg/kg, Day 5",~2.1 h
same,half-life,"[1]; 2 mg/kg, Day 5, read-out: T1/2 (converted)",8.6 h
same,tolerability,[1]; daily oral for 5 consecutive days at 1.5 mg/kg/day,well-tolerated
same,Tmax,"[2]; 300 mg/kg, 300 mg/kg/week, 2nd dose",1 h
same,Cmax,[2]; [5],8130 ng/mL
same,AUC(0-t),[2]; [5],13600 ng·h/mL
same,Tmax,"[2]; 300 mg/kg, 300 mg/kg/week, 4th dose",1.3 h
same,Cmax,[2]; [6],8370 ng/mL
same,AUC(0-t),[2]; [6],38200 ng·h/mL
same,Tmax,"[2]; 600 mg/kg, 600 mg/kg/week, 2nd dose",5.7 h
same,Cmax,[2]; [7],13400 ng/mL
same,AUC(0-t),[2]; [7],47800 ng·h/mL
same,Tmax,"[2]; 600 mg/kg, 600 mg/kg/week, 4th dose",0.5 h
same,Cmax,[2]; [8],28800 ng/mL
same,AUC(0-t),[2]; [8],125000 ng·h/mL
same,half-life,"[2]; 300 mg/kg/week, 2nd dose",4.1 h
same,half-life,"[2]; 600 mg/kg/week, 4th dose",85.8 h
same,tolerability,[2]; once weekly orally for 4 weeks at 300 and 600 mg/kg/week,well tolerated
same,S-Phase Arrest,NCI-H209,+
same,S-Phase Arrest,NCI-H69,+
same,S-Phase Arrest,NCI-H82,+
same,S-Phase Arrest,22Rv1,−
same,S-Phase Arrest,BT-549,+
same,S-Phase Arrest,Y-79,−
same,S-Phase Arrest,LNCaP,−
same,S-Phase Arrest,NCI-H146,+
same,S-Phase Arrest,Hut-78,+
same,S-Phase Arrest,DU-145,+
same,S-Phase Arrest,SCLC-21H,+
same,S-Phase Arrest,NCI-H660 [3],+
same,Tumor growth inhibition,"NCI-H660 [4]; once weekly 15 mg/kg/day, p 0.002",74% (0.002)/
same,Tumor growth inhibition,"NCI-H660 [4]; once weekly 30 mg/kg/day, p 0.001",84% (0.001)
same,tumor growth,NCI-H660 [4]; once weekly 60 mg/kg,complete block of tumor growth
same,Tumor growth inhibition,"NCI-H660 [4]; once weekly 60 mg/kg/day single dose, p <0.001",99% (<0.001)/*6 weeks
